Entries after “also recorded” stand apart in the source; their conditions may differ. In the oligonucleotide strings, read from the 5' end, every base follows the letter of its sugar. An asterisk marks phosphorothioate; unmarked linkages are phosphodiester. Other units and linkages are bracketed, terminal groups are in braces. A string of capitals states the bases alone. e = 2'-O-(2-methoxyethyl) (MOE); [5mC] = 5-methylcytosine; d = 2'-deoxy (DNA)
Assays:
let-7i pri-miRNA = let-7i pri-miRNA expression in HeLa cells; format: cell-based, human; conditions: 100 nM
Method: Using the transfection methods previously described, HeLa cells were treated with 100 nM of the oligomeric compound ISIS Number 327890 (SEQ ID NO: 308) targeting the let-7i mature miRNA. Total RNA was isolated and expression levels of the let-7i pri-miRNA were analyzed by real-time quantitative RT-PCR using a primer/probe set specific for the let-7i pri-miRNA molecule [forward primer-ISIS 341684 ([…]; herein incorporated as SEQ ID NO.: 777), reverse primer=ISIS 341685 ([…]; herein incorporated as SEQ ID NO.: 778), and probe=ISIS 341686 ([…]; herein incorporated as SEQ ID NO.: 779)].

IL-12 mRNA = IL-12 mRNA in LPS-activated primary murine macrophages; format: cell-based, mouse; conditions: LPS-stimulated primary murine macrophages
TLR4 = TLR4 mRNA in primary murine macrophages; format: cell-based, mouse; conditions: LPS-stimulated and LPS- and IFN-gamma-stimulated macrophages
Method: Following the 24 hour treatment with LPS, the cells were lysed and RNA was isolated using the RNEASY 96™ kit, as described herein. mRNA expression was quantitated by real-time PCR, performed as described herein, using primer and probe sets to amplify and quantitate TLR4, IL-12 and IL-6 mRNA expression levels. Primers and probe for TLR4, designed using GenBank Accession number NM_021297.1, were: forward primer, 5′-[…]-3′ (SEQ ID NO: 2172), reverse primer, 5′-[…]-3′ (SEQ ID NO: 2173), probe 5′-FAM-[…]-TAMRA-3′ (SEQ ID NO: 2174). Primers and probe for IL-12, designed using GenBank Accession number M86671.1, were: forward primer, 5′-[…]-3′ (SEQ ID NO: 2175), reverse primer, 5′-[…]-3′ (SEQ ID NO: 2176), probe 5′-FAM-[…]-TAMRA-3′ (SEQ ID NO: 2177). Primers and probe for IL-6, designed using GenBank Accession number X54542.1, were: forward primer, 5′-[…]-3′ (SEQ ID NO: 2178), reverse primer, 5′-[…]-3′ (SEQ ID NO: 2179), probe 5′-FAM-[…]-TAMRA-3′ (SEQ ID NO: 2180). The amount of total RNA in each sample was determined using a Ribogreen Assay (Molecular Probes, Eugene, Oreg.), and expression levels of TLR4, IL-12 and IL-6 were normalized to total RNA.
TLR4 is the primary macrophage receptor for LPS. […]

IL-6 mRNA = IL-6 mRNA in LPS-activated primary murine macrophages; format: cell-based, mouse; conditions: IFN-gamma-stimulated and unstimulated cells, 75-600 nM
Method: To investigate the role of miRNAs in the immune response, oligomeric compounds of the present invention targeting miRNAs were tested for their effects upon lipopolysaccharide (LPS)-activated primary murine macrophages. Macrophages participate in the immune response, for example, in the recognition and phagocytosis of microorganisms, including bacteria. Interferon-gamma (IFN-gamma) released by helper T cells is one type of signal required for macrophage activation, and LPS can serve as an additional stimulus. LPS is a component of the gram-negative bacterial cell wall and acts as an agonist for toll-like receptor 4 (TLR4), the primary LPS receptor expressed by macrophages. The proinflammatory cytokines interleukin-12 (IL-12) and interleukin-6 (IL-6) are induced by LPS treatment of macrophages, thus the expression of the mRNAs encoding these cytokines was used to evaluate the response of macrophages to LPS following treatment with oligomeric compounds targeting miRNAs.
Macrophages were isolated as follows. Female C57B1/6 mice (Charles River Laboratories, Wilmington, Mass.) were injected intraperitoneally with 1 ml 3% thioglycollate broth (Sigma-Aldrich, St. Louis, Mo.), and peritoneal macrophage cells were isolated by peritoneal lavage 4 days later. The cells were plated in 96-well plates at 40,000 cells/well for one hour in serum-free RPMI adjusted to contain 10 mM HEPES (Invitrogen Life Technologies, Carlsbad, Calif.), allowed to adhere, then non-adherent cells were washed away and the media was replaced with RPMI containing 10 mM HEPES, 10% FBS and penicillin/streptomycin (“complete” RPMI; Invitrogen Life Technologies, Carlsbad, Calif.).
Oligomeric compounds were introduced into the cells using the non-liposomal transfection reagent FuGENE 6 Transfection Reagent (Roche Diagnostics Corp., Indianapolis, Ind.). Oligomeric compound was mixed with FuGENE 6 in 1 mL of serum-free RPMI to achieve a concentration of 10 μL FuGENE per 1000 nM oligomeric compound. The oligomeric compound/FuGENE complex was allowed to form at room temperature for 20 minutes. This mixture was diluted to the desired concentration of oligomeric compound by the addition of the appropriate volume of complete RPMI. The final ratio of FuGENE 6 to oligomeric compound was 1 μL of FuGENE 6 per 100 nM oligomeric compound. A volume of 100 μL of oligomeric compound/FuGENE/RPMI was added to each well of the 96-well plate in which the macrophages were cultured. Each oligomeric compound treatment was repeated in triplicate.
Following oligomeric compound treatment, cells were stimultated with LPS. Cells were cultured in the presence of the transfection complex for approximately 24 to 28 hours at 37° C. and 5% CO2, after which the medium containing the transfection complex was removed from the cells, and complete RPMI containing 100 ng/mL LPS (Sigma-Aldrich Corp., St. Louis, Mo.) was added to the cells for a period of approximately 24 hours. Control samples included (1) cells receiving no oligomeric compound, stimulated with LPS and (2) cells receiving neither oligomeric compound nor LPS treatment.
In another embodiment, following oligomeric compound treatment, cells were first activated by IFN-gamma, to amplify the response to LPS. Cells were cultured in the presence of the transfection complex for approximately 24 hours at 37° C. and 5% CO2, at which point the medium containing the transfection complex was removed from the cells, and complete RPMI containing 100 ng/mL recombinant mouse IFN-gamma (R&D Systems, Minneapolis, Minn.) was added to the cells. After the 4 hour treatment with INF-gamma, cells were treated with 100 ng/mL LPS for approximately 24 hours. Control samples included (1) cells receiving no oligomeric compound, stimulated with LPS and (2) cells receiving neither oligomeric compound nor LPS treatment. […]

mir-24-2 pri-miRNA = mir-24-2 pri-miRNA expression in HeLa cells; format: cell-based, human; conditions: 100 nM
Method: The expression levels of mir-24-2, let-7i , and let-7d were assessed in HeLa or T-24 cells treated with various uniform 2′-MOE oligomeric compounds targeting mature miRNAs. For example, using the transfection methods previously described, HeLa cells were treated with 100 nM of the oligomeric compound ISIS Number 327945 (SEQ ID NO: 363) targeting the mir-24-2 mature miRNA. Total RNA was isolated and expression levels of the mir-24-2 pri-miRNA were analyzed by real-time quantitative RT-PCR using a primer/probe set specific for the mir-24-2 pri-miRNA molecule [forward primer=ISIS 359358 (CCCTGGGCTCTGCCT; herein incorporated as SEQ ID NO.: 908), reverse primer-ISIS 359359 ([…]; herein incorporated as SEQ ID NO.: 909), and probe=ISIS 359360 (CGTGCCTACTGAGC; herein incorporated as SEQ ID NO.: 910)].

mir-23b miRNA [1] = experiment: Northern blot of mir-23b in kidney of ob/ob mice; format: in vivo, mouse; conditions: twice weekly at 25 mg/kg, saline = 100%
Method: In addition, Northern blot analyses were performed to quantitate the expression of mir-23b in kidney samples of ob/ob mice treated with oligomeric compounds of the present invention. To detect the mir-23b target, a target-specific DNA oligonucleotide probe with the sequence […] (SEQ ID NO: 307) was synthesized by IDT (Coralville, Iowa). The oligo probes were 5′ end-labeled with T4 polynucleotide kinase with (γ-^32P) ATP (Promega). The mir-23b specific DNA oligonucleotide probe was used to detect expression levels of the mir-23b miRNA in ob/ob mice treated (twice weekly at 25 mg/kg) with ISIS Numbers 327889, the uniform 2′-MOE oligomeric compound, or ISIS Number 340925, the 5-10-8 gapmer compound, both targeted to mir-23b, versus saline treated animals or animals treated with a control oligomeric compound, ISIS Number 116847 ([…]; SEQ ID NO: 844), a uniform 5-10-52′-MOE gapmer targeting an unrelated gene, PTEN. Expression levels were normalized against the U6 RNA and the expression levels of saline treated animals were set at 100%. […] In kidney samples from mice treated with the gapmer oligomeric compound targeting mir-23b, ISIS Number 340925, a 41% reduction in in vivo expression levels of the mir-23b miRNA was observed.

DIO mice = experiment: Diet-induced obesity (DIO) mice; format: in vivo; conditions: 25 mg/kg s.c. twice weekly
Method: As described, supra, the C57BL/6 mouse strain is reported to be susceptible to hyperlipidemia-induced atherosclerotic plaque formation, and when these mice are fed a high-fat diet, they develop diet-induced obesity (DIO). Accordingly, the DIO mouse model is useful for the investigation of obesity and development of agents designed to treat these conditions. In one embodiment of the present invention, oligomeric compounds targeting miRNAs were tested in the DIO model. Normal C57/BL6 male mice were fed a high fat diet (40% fat, 41% carbohydrate, 18% protein) for 12 weeks before the study began. DIO mice were then randomized by weight and insulin values. Initial body fat composition was determined by Dual X-ray Absorptiometry (DEXA) Scan. DIO mice were then subcutaneously injected with oligomeric compounds of the invention at a dose of 25 mg/kg, twice weekly. DIO mice were treated with oligomeric compounds ISIS Numbers 327901 and 340927 targeting mir-143, ISIS Numbers 327892 and 340926 targeting mir-131/mir-9, ISIS Numbers 327878 and ISIS Number 345349 targeting mir-203, and ISIS Numbers 327889 and 340925, targeting mir-23b. […] DEXA scans were also performed at weeks 0, 3 and 5 after treatment with the oligomeric compounds to assess the fat mass to lean mass ratio. The effects of target inhibition on levels of plasma glucose and insulin, liver transaminases, cholesterol and triglycerides, were also assessed weekly by tail bleed, and after the treatment period, mice were sacrificed and liver and kidney heart, as well as white adipose tissue (WAT) tissues collected. The mRNA expression levels of the Glut4, aP2, HSL and PPARγ marker genes are also assessed. […] Furthermore, some improvement in body composition (a reduction in body weight and fat mass) was observed.

mir-23b miRNA [2] = experiment: pGL3-mir-23b sensor luciferase assay in HeLa cells; format: cell-based, human; conditions: HeLa, 1.3-, 5- or 20 nM
From the text: In order to assess the ability of miRNAs to bind predicted miRNA binding sites and regulate the expression of the luciferase reporter, in some embodiments, expression systems based on the pGL3-Control (Promega Corp., Madison Wis.) reporter vector and comprising either a mir-15a, mir-21, or a mir-23b miRNA binding site were developed and used in transient transfections of HeLa cells to determine whether the endogenous mir-15a, mir-21, or mir-23b miRNAs, respectively, could repress luciferase reporter gene expression.
The pGL3-mir-23b sensor plasmid was created by cloning the sequence ([…]; SEQ ID NO: 307), representing a sequence complementary to the mir-23b miRNA, into the Xba site of the pGL3-Control plasmid, placing the potential miRNA-binding site in the 3′UTR of the luciferase reporter. This reporter plasmid was used to transfect HeLa cells and it was observed that the endogenous mir-23b miRNA was able to inhibit luciferase expression from the pGL3-mir-23b sensor plasmid. Thus, to further evaluate the ability of the mir-23b miRNA to bind this target site encoded by the pGL3-mir-23b sensor plasmid, and to assess the ability of oligomeric compounds to interfere with mir-23b-mediated silencing, pGL3-mir-23b sensor-expressing HeLa cells were treated with varying concentrations (1.3-, 5- or 20 nM) of the following oligomeric compounds: ISIS Number 327889 (SEQ ID NO: 307), a phosphorothioate uniform 2′-MOE oligomeric compound, and ISIS Number 340925 (SEQ ID NO: 307), a 2′-MOE 5-10-8 gapmer oligomeric compound, both targeting mir-23b. The uniform 2′-MOE phosphorothioate oligomeric compound ISIS Number 327924 (SEQ ID NO: 342) targeting an unrelated miRNA (mir-129-2) was used as a negative control. The data are the average of three trials, and are presented in Table 43 as relative luciferase activity (normalized to pRL-CMV luciferase plasmid only, not treated with oligomeric compound).

[3] = tested on: preadipocytes / differentiating adipocytes; experiment: Adipocyte differentiation assay, markers taken together; format: cell-based, human; conditions: preadipocytes, 250 nM, day nine post-transfection, relative to ISIS-29848

## AGCACAAACTACTACCTCA (chemistry not fully specified) [ISIS 327890, uniform 2′-MOE PS; targets let-7i]
let-7i pri-miRNA
  increase in expression levels of the let-7i pri-miRNA molecule: approximately 4 fold

## CCACATTGAGTTTCTTTAAG (e[5mC]*e[5mC]*eA*e[5mC]*eA*dT*dT*dG*dA*dG*dT*dT*dT*d[5mC]*dT*eT*eT*eA*eA*eG) [ISIS 229927, 5-10-5 2′-MOE gapmer PS targeting mouse TLR4 mRNA, positive control, reference compound]
IL-12 mRNA
  IL-12 mRNA expression: dose-dependent reduction in IL-12
TLR4
  expression of TLR4: reduced the expression of TLR4 in a dose-dependent manner
IL-6 mRNA
  IL-6 expression: some reduction in IL-6 expression

## CTGTTCCTGCTGAACTGAGCCA (anti-miR; chemistry not fully specified) [ISIS 327945, uniform 2′-MOE PS; targets mir-24-2]
mir-24-2 pri-miRNA
  increase in expression levels of the mir-24-2 pri-miRNA molecule: approximately 35 fold

## GTGGTAATCCCTGGCAATGTGAT [ISIS 327889] (chemistry not given here) [uniform 2′-MOE PS; targets mir-23b]
mir-23b miRNA [1]
  decrease in in vivo expression levels of the mir-23b miRNA: ~64%
DIO mice
  liver toxicity (plasma transaminase levels, weekly): did not appear to cause liver toxicity
mir-23b miRNA [2]
  expression of the luciferase reporter, pGL3-mir-23b sensor: de-repressed the expression of the luciferase reporter
[3]
  expression levels of markers of adipocyte differentiation (TG, leptin, aP2, HSL, Glut4, PPARγ): significantly reduce the expression levels of 5 of 6 markers of adipocyte differentiation; also recorded: reduce the expression of several hallmark genes of adipocyte differentiation
